According to patent US20060025458A1, “Alkylammonium compounds as antifungal and antitrypanosomal agents” (University of Connecticut, priority 2004, published 2006):
pIC50: −log10 of the molar value.

Key:
[1] = system: S. cerevisiae; test: Liquid growth inhibition assay of S. cerevisiae (OD600); type: cell-based, Saccharomyces cerevisiae
Description: Strains and Growth Conditions: Wild-type (BY4741: Mata his3Δ1 leu2Δ0 met15Δ0 ura3Δ0) and mutant (hnm1Δ, psd1Δ, cki1Δ, pem1Δ, ept1Δ, cpt1Δ, eki1Δ, psd2Δ, pct1Δ, ect1Δ, pem2Δ) S. cerevisiae strains used in this study were purchased from Research Genetics (Invitrogen, USA). These strains were grown on YPD (1% yeast extract, 2% dextrose and 2% peptone) or synthetic complete medium (SD, 1.7% yeast nitrogen base, 5% ammonium sulfate and 2% dextrose). The Nigerian strain of P. falciparum was propagated in human red blood cells at 4% hematocrit by the method of Trager and Jensen (1976). Plate growth assays were performed by growing wild-type and mutant yeast strains in YPD to mid-log phase. Cultures were serially diluted 1:10 starting with a density of 3×10^7 cells/ml. The growth of cells was monitored by spotting 3 μl of each dilution onto solid medium in the absence or presence of 5 μM of G25.
Twenty-one analogs including first, second and third generation (E2a, E6, E9, E13, E24, F4, G2, G4, G5, G14, GI5, G25, H5, L1, L4, M34, M53, MS1, T3 and T4) compounds (provided by Dr. Henri Vial, City, Country) were tested (FIG. 4). The choice of the compounds was such that they represent all possible structural features introduced during the optimization process for enhancing antimalarial activity as determined using the combinatorial chemistry techniques.
The antimalarial drug G25 inhibits the growth of Saccharomyces cerevisiae. […] Growth inhibition was assessed by measuring the OD600 and comparing it to that of the wild-type strain grown under the same conditions in the absence of the compound. […] This IC50 value is in the range of the predicted intracellular concentration of G25 in P. falciparum due to the accumulative properties inside the infected erythrocytes.

[2] = system: promastigote form of L. major; test: Growth inhibition of Leishmania major promastigotes; type: cell-based; conditions: read-out: IC50 of choline analogs in Leishmania major, WT
Description: For those drugs, IC50 values were determined.

[3] = system: de novo CDP-choline pathway (PtdCho synthesis from choline); test: Incorporation of labeled choline into PtdCho in P. falciparum-infected erythrocytes; type: cell-based, Plasmodium falciparum
Description: FIG. 10A. […] 5-6×10^7 synchronized P. falciparum-infected erythrocytes (7% trophozoite stage) were pre-incubated at 4% haematocrit for 1 h in RPMI-based medium containing the indicated concentration of G25 before adding 30 μM [methyl-^3H]-choline (334 mCi/mmol). After incubation at 37° C. for 3 h, the cellular lipids were extracted and fractionated on TLC plates for quantification of radioactivity in PtdCho (black squares).
Labeling Studies and Phospholipid Analysis in P. falciparum: Nigerian strains of P. falciparum were asexually cultured in the presence of basic medium (RPMI 1640 supplemented with 25 mM Hepes, pH 7.4) and 10% AB^+ human serum (Trager and Jensen, 1976). Parasite synchronization was obtained with three successive 5% sorbitol treatments (Lambros and Vanderberg, 1979). Synchronized P. falciparum-infected erythrocytes (7-10% parasitemia, trophozoites) were pre-incubated for 1 hour at 37° C. at 4% hematocrit in 2 ml (final volume) basic medium in the absence or the presence of different concentrations of the compound G25. The appropriate radioactive precursor of lipid metabolism was added followed by further 3 h of incubation. Radioactive precursors were used as follows: 30 μM [methyl-^3H]-choline (334 mCi/mmol), 2 μM [^3H]-ethanolamine (2 Ci/mmol) and 10 μM [3-^14C]-serine (57 mCi/mmol). Following incubation with radiolabeled precursors, cells were concentrated by centrifugation at 1,200×g for 5 min at 4° C., washed twice and the cellular lipids were extracted by a mixture of chloroform/methanol (Folch, et al., 1957) and the organic phase was evaporated under air. […] The silica gel of the lipid spots were scraped directly into scintillation vials containing 3 ml of liquid-scintillation fluid and counted in a Beckman LS 5000 spectrophotometer. The amount of labeled precursors incorporated into cellular lipids (nmol×10^7 cell^−1×h^−1) was computed on the basis of radioactivity incorporated into lipids and the specific activity of the precursors in the incubation medium. […]

SMILES: C[N+]1(CCCCCCCCCCCCCCCC[N+]2(C)CCCC2)CCCC1.[Br-].[Br-] [G25, 1,16-hexadecamethylenebis[N-methylpyrrolidinium]dibromide]
- Inhibition of S. cerevisiae growth (in words) ([1]; structure-activity comparison, Examples 2-4): inhibited
- pIC50 ([1]; wild-type strain BY4741, 1×10^4 cells/ml, liquid medium, 30° C., 16 h, read-out: IC50, inhibition of yeast growth): 5.60
- pIC50 [2]: 5.09
- inhibition of PtdCho biosynthesis ([3]; 1 μM G25): 56%
- inhibition of PtdCho biosynthesis ([3]; 10 μM G25): nearly complete inhibition
- concentration causing a significant decrease of PtdCho biosynthesis ([3]; trophozoite-infected erythrocytes): higher than 0.1 μM
